Earlier results, collected in patent publication US20210316038A1, “ANTIBIOTIC ELUTING POLY(ESTER UREA) FILMS, MESHES AND POUCHES FOR INFECTION CONTROL OF IMPLANTABLE MEDICAL DEVICES” (The University of Akron, priority 2019, published 2021).

Q: Which solubility in water does the source give for `Cc1nnc(SCC2=C(C(=O)O)N3C(=O)[C@@H](NC(=O)Cn4cnnn4)[C@H]3SC2)s1` [Cefazolin] here?
A: Cefazolin has high solubility in water (>100 mg/ml
